Measured values: the supplement of paper PMC11061612

What was measured:
Experiment in all cases: Bliss excess, mean over the matrix (fraction); higher = more synergy
[1] = tested on: A2780 (Ovarian Carcinoma)
Procedure, shortened: (§1)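 Cell lines in DMEM/F12 or RPMI with 10% FBS were plated in 1536-well plates, held 24 hours at 37°C, 5% CO2, then given two-drug dose matrices for 72 hours (DMSO typically 0.2%). Viability was read by CellTiter-Glo 2.0 luminescence and scaled as inhibition from 0 (vehicle wells) to 1 (blank wells). Combination Emax is the second-highest inhibition in the matrix; Bliss excess is observed combination effect minus expected EA + EB − EA·EB, EA and EB being single-agent effects.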

[2] = tested on: DU-4475 (Breast Carcinoma)
Procedure, shortened: as §1

[3] = tested on: GA-10 (Burkitt's Lymphoma)
Procedure, shortened: as §1

RH-41 (Rhabdomyosarcoma) = tested on: RH-41 (Rhabdomyosarcoma)
Procedure, shortened: as §1

[4] = tested on: LU-165 (Small Cell Lung Carcinoma)
Procedure, shortened: as §1

[5] = tested on: UACC-812 (Breast Carcinoma)
Procedure, shortened: as §1

[6] = tested on: huH-1 (Hepatocellular Carcinoma)
Procedure, shortened: as §1

[7] = tested on: SW620 (Colorectal Carcinoma)
Procedure, shortened: as §1

[8] = tested on: JHH-2 (Hepatocellular Carcinoma)
Procedure, shortened: as §1

[9] = tested on: A253 (Head and Neck Carcinoma)
Procedure, shortened: as §1

[10] = tested on: NCI-H2087 (Lung Adenocarcinoma)
Procedure, shortened: as §1

EW-16 (Ewing's Sarcoma) = tested on: EW-16 (Ewing's Sarcoma)
Procedure, shortened: as §1

[11] = tested on: CGTH-W-1 (Thyroid Gland Carcinoma)
Procedure, shortened: as §1

[12] = tested on: EPLC-272H (Other Solid Carcinomas)
Procedure, shortened: as §1

[13] = tested on: KYSE-220 (Esophageal Squamous Cell Carcinoma)
Procedure, shortened: as §1

[14] = tested on: G-402 (Other Solid Carcinomas)
Procedure, shortened: as §1

A101D (Melanoma) = tested on: A101D (Melanoma)
Procedure, shortened: as §1

5637 (Bladder Carcinoma) = tested on: 5637 (Bladder Carcinoma)
Procedure, shortened: as §1

[15] = tested on: NCI-H1651 (Lung Adenocarcinoma)
Procedure, shortened: as §1

[16] = tested on: NCI-H2228 (Lung Adenocarcinoma)
Procedure, shortened: as §1

Row | SMILES | Bliss excess [1] | Bliss excess [2] | Bliss excess [3] | Bliss excess (RH-41 (Rhabdomyosarcoma)) | Bliss excess [4] | Bliss excess [5] | Bliss excess [6] | Bliss excess [7] | Bliss excess [8] | Bliss excess [9] | Bliss excess [10] | Bliss excess (EW-16 (Ewing's Sarcoma)) | Bliss excess [11] | Bliss excess [12] | Bliss excess [13] | Bliss excess [14] | Bliss excess (A101D (Melanoma)) | Bliss excess (5637 (Bladder Carcinoma)) | Bliss excess [15] | Bliss excess [16]
1 | Cc1c2c(nn1C)CSCc1cc(n(C)n1)CSc1cc(c3ccccc3c1)OCCCc1c(C(=O)O)n(C)c3c-2c(Cl)ccc13 [AZD5991] + C1CN(CCC1(C(=O)N[C@@H](CCO)C2=CC=C(C=C2)Cl)N)C3=NC=NC4=C3C=CN4 [Capivasertib] (first compound max 1 µM, 7x7, partner max 3 µM) | -0.0233 | -0.0023 | 0.0138 | -0.0334 | 0.0034 | 0.0196 | -0.0149 | -0.0325 | 0.0621 | 0.0473 | -0.0295 | -0.0456 | 0.0091 | 0.0341 | 0.0187 | 0.0445 | 0.0252 | -0.004 | 0.0279 | -0.0225
2 | Cc1c2c(nn1C)CSCc1cc(n(C)n1)CSc1cc(c3ccccc3c1)OCCCc1c(C(=O)O)n(C)c3c-2c(Cl)ccc13 [AZD5991] + C=CCn1c(=O)c2cnc(Nc3ccc(N4CCN(C)CC4)cc3)nc2n1-c1cccc(C(C)(C)O)n1 [AZD1775] (first compound max 1 µM, partner max 1 µM) | -0.0313 | -0.0582 | -0.053 | 0.0029 | 0.0112 | -0.0343 | -0.0405 | -0.0272 | -0.063 | 0.0398 | -0.0067 | -0.0392 | 0.005 | 0.0188 | 0.0181 | 0.051 | 0.0106 | -0.0352 | -0.11 | 0.0114
3 | Cc1c2c(nn1C)CSCc1cc(n(C)n1)CSc1cc(c3ccccc3c1)OCCCc1c(C(=O)O)n(C)c3c-2c(Cl)ccc13 [AZD5991] + CC1(C)CCC(CN2CCN(c3ccc(C(=O)NS(=O)(=O)c4ccc(NCC5CCOCC5)c([N+](=O)[O-])c4)c(Oc4cnc5[nH]ccc5c4)c3)CC2)=C(c2ccc(Cl)cc2)C1 [Venetoclax] (first compound max 1 µM, 7x7, partner max 1 µM) | 0.0777 | 0.0375 | -0.0658 | 0.0582 | -0.014 | 0.0196 | -0.0534 | -0.037 | -0.0156 | 0.0088 | -0.0304 | -0.0326 | -0.012 | -0.015 | 0.0093 | -0.0461 | 0.0076 | -0.0474 | -0.0327 | -0.0122
4 | Cc1c2c(nn1C)CSCc1cc(n(C)n1)CSc1cc(c3ccccc3c1)OCCCc1c(C(=O)O)n(C)c3c-2c(Cl)ccc13 [AZD5991] + CCN(CCO)CCCOc1ccc2c(Nc3cc(CC(=O)Nc4cccc(F)c4)[nH]n3)ncnc2c1 [AZD2811] (first compound max 1 µM, 7x7, partner max 1 µM) | 0.0561 | 0.075 | -0.0092 | 0.0183 | -0.025 | -0.0149 | 0.024 | 0.0591 | -0.0213 | 0.0542 | -0.0144 | 0.117 | 0.0439 | 0.0705 | 0.0088 | 0.0271 | -0.0169 | 0.0103 | -0.0386 | 0.0161
5 | Cc1c2c(nn1C)CSCc1cc(n(C)n1)CSc1cc(c3ccccc3c1)OCCCc1c(C(=O)O)n(C)c3c-2c(Cl)ccc13 [AZD5991] + CN(C)CCCOc1ccc(-c2ccc3ncc4c(c3c2)n(C2CCOCC2)c(=O)n4C)cn1 [AZD0156] (first compound max 1 µM, 7x7, partner max 1 µM) | -0.0094 | -0.0262 | -0.0564 | 0.0044 | 0.0147 | 0.0465 | -0.0069 | 0.0345 | 0.0012 | 0.0058 | 0.005 | -0.0014 | -0.0151 | 0.0047 | -0.0053 | 0.0162 | -0.0801 | -0.0014 | 0.0042 | -0.0096
6 | Cc1c2c(nn1C)CSCc1cc(n(C)n1)CSc1cc(c3ccccc3c1)OCCCc1c(C(=O)O)n(C)c3c-2c(Cl)ccc13 [AZD5991] + C[C@@H]1COCCN1C2=NC(=NC(=C2)C3(CC3)[S@](=N)(=O)C)C4=C5C=CNC5=NC=C4 [AZD6738] (first compound max 1 µM, 7x7, partner max 10 µM) | -0.0032 | 0.0233 | -0.018 | 0.014 | 0.0012 | 0.0094 | -0.0302 | 0.0191 | 0.0115 | 0.0364 | -0.0396 | -0.0304 | 0.0117 | 0.0151 | -0.0328 | 0.0386 | 0.0342 | 0.0305 | 0.0192 | -0.0302
7 | Cc1c2c(nn1C)CSCc1cc(n(C)n1)CSc1cc(c3ccccc3c1)OCCCc1c(C(=O)O)n(C)c3c-2c(Cl)ccc13 [AZD5991] + Cc1cc2ncnn2cc1Nc1ncc2c(n1)n(C1CCOCC1)c(=O)n2C [AZD7648] (first compound max 1 µM, 7x7, partner max 10 µM) | -0.0224 | 0.0811 | -0.0508 | -0.0443 | 0.0045 | -0.0259 | -0.0224 | -0.0421 | -0.0272 | -0.0286 | -0.0221 | -0.0174 | -0.0214 | -0.0575 | 0.0083 | 0.0229 | -0.0897 | -0.0232 | 0.0096 | -0.0413
8 | Cc1c2c(nn1C)CSCc1cc(n(C)n1)CSc1cc(c3ccccc3c1)OCCCc1c(C(=O)O)n(C)c3c-2c(Cl)ccc13 [AZD5991] + Cn1cnc2c(F)c(Nc3ccc(Br)cc3Cl)c(C(=O)NOCCO)cc21 [Selumetinib] (first compound max 1 µM, 7x7, partner max 3 µM) | -0.0361 | -0.0018 | 0.0086 | -0.0293 | -0.0335 | 0.0137 | -0.0382 | 0.0005 | -0.0154 | 0.0716 | 0.0282 | 0.046 | -0.0152 | 0.0197 | 0.0119 | -0.0416 | 0.0482 | 0.0174 | -0.0165 | 0.0038
9 | C[C@@H]1COCCN1c1cc(C2([S@](C)(=N)=O)CC2)nc(-c2ccnc3[nH]ccc23)n1 [AZD6738] + O=C(c1cc(Cc2n[nH]c(=O)c3ccccc23)ccc1F)N1CCN(C(=O)C2CC2)CC1 [Olaparib] (first compound max 10 µM, 7x7, partner max 10 µM) | 0.006 | 0.0762 | -0.0726 | -0.0201 | -0.0714 | -0.0422 | -0.0162 | 0.0218 | -0.0152 | 0.0371 | -0.0008 | 0.0402 | 0.0176 | -0.0682 | -0.0642 | 0.0068 | -0.0004 | -0.0011 | 0.0418 | -0.0305
10 | COc1cccc2c1C(=O)c1c(O)c3c(c(O)c1C2=O)C[C@@](O)(C(=O)CO)C[C@@H]3O[C@H]1C[C@H](N)[C@H](O)[C@H](C)O1 [Doxorubicin] + Cc1cc2ncnn2cc1Nc1ncc2c(n1)n(C1CCOCC1)c(=O)n2C [AZD7648] (first compound max 1 µM, 7x7, partner max 10 µM) | 0.0194 | 0.143 | 0.0964 | 0.116 | -0.0534 | -0.023 | 0.102 | 0.0335 | 0.0229 | 0.108 | 0.0107 | 0.0933 | 0.0333 | 0.0568 | 0.0232 | 0.0446 | 0.0232 | 0.0902 | 0.024 | 0.0042
11 | COc1cccc(OCCCN)c1-c1cc(Nc2cnc(C#N)cn2)n[nH]1 [Prexasertib] + C=CCn1c(=O)c2cnc(Nc3ccc(N4CCN(C)CC4)cc3)nc2n1-c1cccc(C(C)(C)O)n1 [AZD1775] (first compound max 1 µM, partner max 1 µM) | 0.155 | 0.114 | 0.0653 | 0.0677 | -0.0566 | 0.0705 | 0.0613 | 0.0478 | 0.0869 | 0.0877 | 0.0576 | 0.155 | 0.0632 | -0.0284 | 0.0333 | 0.0504 | 0.0932 | 0.0167 | 0.0428 | 0.0199
12 | COc1cccc(OCCCN)c1-c1cc(Nc2cnc(C#N)cn2)n[nH]1 [Prexasertib] + CCc1c2c(nc3ccc(O)cc13)-c1cc3c(c(=O)n1C2)COC(=O)[C@]3(O)CC [SN-38] (first compound max 1 µM, 7x7, partner max 0.3 µM) | -0.0528 | 0.0035 | 0.0088 | 0.0029 | -0.0618 | -0.0633 | 0.022 | 0.0603 | 0.0002 | 0.0296 | -0.0495 | -0.0002 | -0.0566 | -0.0229 | -0.0153 | -0.0336 | -0.0308 | 0.0891 | -0.0551 | -0.0569
13 | COc1cccc(OCCCN)c1-c1cc(Nc2cnc(C#N)cn2)n[nH]1 [Prexasertib] + CN(C)CCCOc1ccc(-c2ccc3ncc4c(c3c2)n(C2CCOCC2)c(=O)n4C)cn1 [AZD0156] (first compound max 1 µM, 7x7, partner max 1 µM) | 0.0127 | -0.0171 | 0.0213 | -0.0209 | -0.0723 | -0.0324 | -0.0422 | -0.0032 | -0.0371 | -0.0379 | -0.0405 | 0.023 | -0.0614 | -0.0602 | -0.026 | 0.0003 | 0.0419 | -0.0174 | -0.107 | -0.0488
14 | COc1cccc(OCCCN)c1-c1cc(Nc2cnc(C#N)cn2)n[nH]1 [Prexasertib] + C[C@@H]1COCCN1C2=NC(=NC(=C2)C3(CC3)[S@](=N)(=O)C)C4=C5C=CNC5=NC=C4 [AZD6738] (first compound max 1 µM, 7x7, partner max 10 µM) | -0.0173 | -0.022 | -0.0023 | -0.0423 | -0.0402 | 0.049 | -0.0716 | 0.013 | -0.0136 | -0.0334 | 0.0072 | 0.0053 | -0.0348 | -0.0656 | -0.0294 | -0.0253 | -0.0066 | -0.0304 | -0.0439 | -0.0434
15 | COc1cccc(OCCCN)c1-c1cc(Nc2cnc(C#N)cn2)n[nH]1 [Prexasertib] + Cc1cc2ncnn2cc1Nc1ncc2c(n1)n(C1CCOCC1)c(=O)n2C [AZD7648] (first compound max 1 µM, 7x7, partner max 10 µM) | 0.0097 | 0.0256 | -0.0051 | -0.0453 | -0.0422 | -0.0402 | -0.0226 | -0.0177 | -0.0348 | -0.0228 | 0.008 | 0.0156 | -0.0455 | -0.0481 | -0.0308 | -0.0602 | 0.0232 | -0.0423 | -0.132 | -0.0487
